Assay results reported in patent publication US20220340597A1, “HEXAHYDRO-1H-PYRAZINO[1,2-A]PYRAZINE COMPOUNDS FOR THE TREATMENT OF AUTOIMMUNE DISEASE” (Hoffmann-La Roche Inc., priority 2019, published 2022).
pIC50: −log10 of the molar value.

Each molecule was assayed against T1, human TLR7 (Homo sapiens, UniProt Q9NYK1) (assay: HEK293-Blue-hTLR-7 cells assay). Conditions: HEK293-Blue-hTLR7 cells, R848 stimulation, 20 hrs, SEAP reporter; read-out: HEK/hTLR7 IC50.
T1 construct: host or cells: HEK293 (HEK-Blue hTLR7)
T1 sequence (Q9NYK1 27-1049): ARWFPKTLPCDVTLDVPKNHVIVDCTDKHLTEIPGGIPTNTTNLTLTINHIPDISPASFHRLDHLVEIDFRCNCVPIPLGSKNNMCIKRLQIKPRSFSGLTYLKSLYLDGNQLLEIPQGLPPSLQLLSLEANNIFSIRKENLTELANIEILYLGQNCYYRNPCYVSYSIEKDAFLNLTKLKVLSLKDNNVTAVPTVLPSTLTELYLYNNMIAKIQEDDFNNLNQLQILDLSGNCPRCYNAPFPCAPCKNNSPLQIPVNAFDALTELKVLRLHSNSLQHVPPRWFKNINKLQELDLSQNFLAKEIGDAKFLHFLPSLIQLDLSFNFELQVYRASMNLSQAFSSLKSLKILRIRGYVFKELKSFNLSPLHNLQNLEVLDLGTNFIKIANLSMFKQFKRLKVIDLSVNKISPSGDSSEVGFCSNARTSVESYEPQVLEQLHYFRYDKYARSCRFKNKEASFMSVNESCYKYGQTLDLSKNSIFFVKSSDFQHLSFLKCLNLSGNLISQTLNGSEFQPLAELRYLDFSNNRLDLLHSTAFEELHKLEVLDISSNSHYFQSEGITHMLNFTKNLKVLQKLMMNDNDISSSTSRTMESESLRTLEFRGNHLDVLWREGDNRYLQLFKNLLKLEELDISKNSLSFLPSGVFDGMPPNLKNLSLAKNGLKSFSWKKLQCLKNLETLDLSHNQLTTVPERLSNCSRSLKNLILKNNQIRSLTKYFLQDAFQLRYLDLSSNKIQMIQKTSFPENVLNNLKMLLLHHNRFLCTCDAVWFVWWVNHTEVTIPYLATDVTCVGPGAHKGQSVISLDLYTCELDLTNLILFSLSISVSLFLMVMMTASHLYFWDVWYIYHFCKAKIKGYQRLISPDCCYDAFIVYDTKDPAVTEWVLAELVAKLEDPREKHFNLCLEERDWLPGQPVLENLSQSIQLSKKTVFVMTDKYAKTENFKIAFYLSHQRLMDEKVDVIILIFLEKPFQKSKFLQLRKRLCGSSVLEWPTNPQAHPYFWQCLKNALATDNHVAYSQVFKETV
Format: cell-based

Structure (SMILES)	pIC50
[2H]c1ccc2c(N3C[C@@H]4CN(Cc5ccc(N6CC[C@@](C)(N)C6)nc5C)CCN4[C@H](C)C3)ccc(C#N)c2n1 [Example 81, 5-[(4R,9aS)-8-[[6-[(3R)-3-amino-3-methyl-pyrrolidin-1-yl]-2-methyl-3-pyridyl]methyl]-4-methyl-3,4,6,7,9,9a-hexahydro-1H-pyrazino[1,2-a]pyrazin-2-yl]-2-deuterio-quinoline-8-carbonitrile]	7.80
[2H]c1ccc2c(N3C[C@@H]4CN(c5ncc(N6C[C@@H]7C[C@H]6CN7)cc5C)CCN4[C@H](C)C3)ccc(C#N)c2n1 [Example 95, 5-[(4R,9aR)-8-[5-[(1S,4S)-2,5-diazabicyclo[2.2.1]heptan-2-yl]-3-methyl-2-pyridyl]-4-methyl-3,4,6,7,9,9a-hexahydro-1H-pyrazino[1,2-a]pyrazin-2-yl]-2-deuterio-quinoline-8-carbonitrile]	8.70
[2H]c1ccc2c(N3C[C@@H]4CN(Cc5cnc(N6CCNCC6)cc5C)CCN4[C@H](C)C3)ccc(C#N)c2n1 [Example 87, 5-[(4R,9aS)-4-methyl-8-[(4-methyl-6-piperazin-1-yl-3-pyridyl)methyl]-3,4,6,7,9,9a-hexahydro-1H-pyrazino[1,2-a]pyrazin-2-yl]-2-deuterio-quinoline-8-carbonitrile]	7.77
[2H]c1ccc2c(N3C[C@@H]4CN(Cc5nc(N6CCNCC6)ccc5C)CCN4[C@H](C)C3)ccc(C#N)c2n1 [Example 88, 5-[(4R,9aS)-4-methyl-8-[(3-methyl-6-piperazin-1-yl-2-pyridyl)methyl]-3,4,6,7,9,9a-hexahydro-1H-pyrazino[1,2-a]pyrazin-2-yl]-2-deuterio-quinoline-8-carbonitrile]	7.40
[2H]c1ccc2c(N3C[C@@H]4CN(Cc5cnc(N6C[C@@H]7C[C@H]6CN7)cc5C)CCN4[C@H](C)C3)ccc(C#N)c2n1 [Example 94, 5-[(4R,9aS)-8-[[6-[(1S,4S)-2,5-diazabicyclo[2.2.1]heptan-2-yl]-4-methyl-3-pyridyl]methyl]-4-methyl-3,4,6,7,9,9a-hexahydro-1H-pyrazino[1,2-a]pyrazin-2-yl]-2-deuterio-quinoline-8-carbonitrile]	7.60
[2H]c1ccc2c(N3C[C@@H]4CN(Cc5ccc(N6CC7CCC(C6)N7)nc5C)CCN4[C@H](C)C3)ccc(C#N)c2n1 [Example 91, 5-[(4R,9aS)-8-[[6-(3,8-diazabicyclo[3.2.1]octan-3-yl)-2-methyl-3-pyridyl]methyl]-4-methyl-3,4,6,7,9,9a-hexahydro-1H-pyrazino[1,2-a]pyrazin-2-yl]-2-deuterio-quinoline-8-carbonitrile]	7.82
[2H]c1ccc2c(N3C[C@@H]4CN(Cc5ccc(N6CC7CC(C6)N7)nc5C)CCN4[C@H](C)C3)ccc(C#N)c2n1 [Example 90, 5-[(4R,9aS)-8-[[6-(3,6-diazabicyclo[3.1.1]heptan-3-yl)-2-methyl-3-pyridyl]methyl]-4-methyl-3,4,6,7,9,9a-hexahydro-1H-pyrazino[1,2-a]pyrazin-2-yl]-2-deuterio-quinoline-8-carbonitrile]	7.89
Cc1nc(N2CCN[C@H](C)C2)ccc1CN1CCN2[C@@H](C1)CN(c1ccc(C#N)c3ncccc13)C[C@H]2C [Example 86, 5-[(4R,9aS)-4-methyl-8-[[2-methyl-6-[(3R)-3-methylpiperazin-1-yl]-3-pyridyl]methyl]-3,4,6,7,9,9a-hexahydro-1H-pyrazino[1,2-a]pyrazin-2-yl]quinoline-8-carbonitrile]	7.82
[2H]c1ccc2c(N3C[C@@H]4CN(c5ncc(N6C[C@@H](N)[C@@H](OC)C6)cc5C)CCN4[C@H](C)C3)ccc(C#N)c2n1 [Example 96, 5-[(4R,9aR)-8-[5-[(3R,4S)-3-amino-4-methoxy-pyrrolidin-1-yl]-3-methyl-2-pyridyl]-4-methyl-3,4,6,7,9,9a-hexahydro-1H-pyrazino[1,2-a]pyrazin-2-yl]-2-deuterio-quinoline-8-carbonitrile]	8.70
[2H]c1ccc2c(N3C[C@@H]4CN(c5ncc(N6C[C@H]7NCCO[C@@H]7C6)cc5C)CCN4[C@H](C)C3)ccc(C#N)c2n1 [Example 100, 5-[(4R,9aR)-8-[5-[(4aR,7aR)-3,4,4a,5,7,7a-hexahydro-2H-pyrrolo[3,4-b][1,4]oxazin-6-yl]-3-methyl-2-pyridyl]-4-methyl-3,4,6,7,9,9a-hexahydro-1H-pyrazino[1,2-a]pyrazin-2-yl]-2-deuterio-quinoline-8-carbonitrile]	9.00
[2H]c1ccc2c(N3C[C@@H]4CN(CCc5ccnc(N6C[C@@H](N)[C@@H](F)C6)c5)CCN4[C@H](C)C3)ccc(C#N)c2n1 [Example 89, 5-[(4R,9aS)-8-[2-[2-[(3R,4S)-3-amino-4-fluoro-pyrrolidin-1-yl]-4-pyridyl]ethyl]-4-methyl-3,4,6,7,9,9a-hexahydro-1H-pyrazino[1,2-a]pyrazin-2-yl]-2-deuterio-quinoline-8-carbonitrile]	7.55
[2H]c1ccc2c(N3C[C@@H]4CN(c5ncc(N6C[C@@H](N)[C@H](OC)C6)cc5C)CCN4[C@H](C)C3)ccc(C#N)c2n1 [Example 99, 5-[(4R,9aR)-8-[5-[(3R,4R)-3-amino-4-methoxy-pyrrolidin-1-yl]-3-methyl-2-pyridyl]-4-methyl-3,4,6,7,9,9a-hexahydro-1H-pyrazino[1,2-a]pyrazin-2-yl]-2-deuterio-quinoline-8-carbonitrile]	9.00
[2H]c1ccc2c(N3C[C@@H]4CN(c5ncc(N6CC[C@@](C)(N)C6)cc5C)CCN4[C@H](C)C3)ccc(C#N)c2n1 [Example 97, 5-[(4R,9aR)-8-[5-[(3R)-3-amino-3-methyl-pyrrolidin-1-yl]-3-methyl-2-pyridyl]-4-methyl-3,4,6,7,9,9a-hexahydro-1H-pyrazino[1,2-a]pyrazin-2-yl]-2-deuterio-quinoline-8-carbonitrile]	8.70
C[C@@H]1CN(c2ccc(C#N)c3ncccc23)C[C@@H]2CN(Cc3ccnc(N4CCNCC4)c3)CCN21 (relative stereo) [Example 3]	7.70
[2H]c1ccc2c(N3C[C@@H]4CN(CCc5ccc(N6CC[C@@](C)(N)C6)nc5)CCN4[C@H](C)C3)ccc(C#N)c2n1 [Example 84, 5-[(4R,9aS)-8-[2-[6-[(3R)-3-amino-3-methyl-pyrrolidin-1-yl]-3-pyridyl]ethyl]-4-methyl-3,4,6,7,9,9a-hexahydro-1H-pyrazino[1,2-a]pyrazin-2-yl]-2-deuterio-quinoline-8-carbonitrile]	7.80
Cc1nc(N2CCNC[C@@H]2C)ccc1CN1CCN2[C@@H](C1)CN(c1ccc(C#N)c3ncccc13)C[C@H]2C [Example 85, 5-[(4R,9aS)-4-methyl-8-[[2-methyl-6-[(2S)-2-methylpiperazin-1-yl]-3-pyridyl]methyl]-3,4,6,7,9,9a-hexahydro-1H-pyrazino[1,2-a]pyrazin-2-yl]quinoline-8-carbonitrile]	7.72
